Test results: ChEMBL document CHEMBL1136385, “Synthesis and pharmacological activity of fluorescent histamine H2 receptor antagonists related to potentidine” (Bioorg Med Chem Lett, 2003)

Target: Histamine H2 receptor (Cavia porcellus, UniProt P47747)
Test: Histamine H2 receptor antagonistic activity on the isolated spontaneously beating guinea pig right atrium
Assay type: functional, tissue-based, Cardiac atrium
Settings: read-out: pA2 (converted)

Histamine H2 receptor, sequence (P47747 whole entry): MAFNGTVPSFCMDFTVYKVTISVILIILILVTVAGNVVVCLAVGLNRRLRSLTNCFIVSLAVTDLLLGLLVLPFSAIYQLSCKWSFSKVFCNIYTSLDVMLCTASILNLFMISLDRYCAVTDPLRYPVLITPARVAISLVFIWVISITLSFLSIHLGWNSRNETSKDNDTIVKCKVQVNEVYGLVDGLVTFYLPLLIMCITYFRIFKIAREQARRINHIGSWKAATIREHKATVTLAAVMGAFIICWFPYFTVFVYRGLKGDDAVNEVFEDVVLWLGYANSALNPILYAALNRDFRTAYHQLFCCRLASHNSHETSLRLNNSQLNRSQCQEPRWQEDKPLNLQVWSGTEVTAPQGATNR

| Kb | SMILES |
| --- | --- |
| 1.82 µM | CC(=O)c1ccc2n(c1=O)[C@H](COC(=O)CCC(=O)NCCCOc1cccc(CN3CCCCC3)c1)Cc1c-2[nH]c2ccccc12 |
| 1.95 µM | CN(C)c1cccc2c(S(=O)(=O)NCC/N=C(\NC#N)NCCCOc3cccc(CN4CCCCC4)c3)cccc12 |
| 0.0372 µM | N#CN/C(=N\CCCNc1ccc([N+](=O)[O-])c2nonc12)NCCCOc1cccc(CN2CCCCC2)c1 |
| 8.91 µM | N#CN/C(=N\CCCCNC(=O)c1ccc(C2c3ccc(O)cc3OC3=CC(=O)C=CC32)c(C(=O)O)c1)NCCCOc1cccc(CN2CCCCC2)c1 (stereo not given) |
| 66.1 µM | N#CN/C(=N\CCNC(=O)c1ccc(C2c3ccc(O)cc3OC3=CC(=O)C=CC32)c(C(=O)O)c1)NCCCOc1cccc(CN2CCCCC2)c1 (stereo not given) |
| 0.0257 µM | N#CN/C(=N\CCNC(=O)CCCCCNc1ccc([N+](=O)[O-])c2nonc12)NCCCOc1cccc(CN2CCCCC2)c1 |
| 0.011 µM | N#CN=C(NCCCCCCCCNc1ccc([N+](=O)[O-])c2n[o+][n-]c12)NCCCOc1cccc(CN2CCCCC2)c1 |
| 44.7 µM | N#CN/C(=N\CCNC(=O)c1ccc(C(=O)O)c(C2c3ccc(O)cc3OC3=CC(=O)C=CC32)c1)NCCCOc1cccc(CN2CCCCC2)c1 (stereo not given) |
| 0.0324 µM | N#CN/C(=N\CCCCCCNc1ccc([N+](=O)[O-])c2nonc12)NCCCOc1cccc(CN2CCCCC2)c1 |
| 0.182 µM | N#CN/C(=N\CCNC(=O)c1c2ccccc2nc2ccccc12)NCCCOc1cccc(CN2CCCCC2)c1 |
| 10 µM | N#CN/C(=N\CCCCNC(=O)c1ccc(C(=O)O)c(C2c3ccc(O)cc3OC3=CC(=O)C=CC32)c1)NCCCOc1cccc(CN2CCCCC2)c1 (stereo not given) |
| 1.1 µM | N#CN/C(=N\CCN)NCCCOc1cccc(CN2CCCCC2)c1 |
| 0.0182 µM | NC(N)=Nc1nc(CSCCC(N)=NS(N)(=O)=O)cs1 [FAMOTIDINE] |
| 0.17 µM | CN/C(=C/[N+](=O)[O-])NCCSCc1ccc(CN(C)C)o1 [RANITIDINE] |
| 0.0389 µM | CC(=O)OCC(=O)NCCCOc1cccc(CN2CCCCC2)c1 [ROXATIDINE ACETATE] |
